In patent publication US8242275B2, “Bicyclic pyrazole compounds as antibacterial agents” (Janssen Pharmaceutica NV, priority 2005, dated 2012):
Values after ≈ are worked out from the molar mass of the structure shown.

Assays:
[1] = biological target: T1, E. coli topoisomerase IV (Escherichia coli, UniProt P0AFI2+P20083); assay: Topoisomerase IV inhibition assay (relaxation); format: biochemical; details: E. coli topoisomerase IV relaxation, visual inspection of gels; read-out: Topoisomerase IV IC50 (converted)
T1 construct: purchased John Innes Enterprises Ltd. (John Innes Centre, UK)
Description: Inhibition of the relaxation activity of E. coli topoisomerase IV was determined using enzyme, buffers and substrates received from John Innes Enterprises Ltd. (John Innes Centre, UK). The reactions were performed according to the manufacturer's directions, with the following modifications.
DNA relaxation reactions were carried out in a total reaction volume of 20 μL, containing 300 ng of supercoiled pBR322, 40 mM HEPES-KOH (pH 7.6), 100 mM potassium glutamate, 10 mM Mg(OAc)2, 10 mM DTT, 4 μg/mL tRNA, 2 mM ATP, and 50 μg/mL BSA. Compounds, diluted in 10% DMSO, were added to the reaction mixture to reach a final concentration of 0.5% DMSO. Enzyme was diluted to 0.45 unit/μL in a solution of 40 mM HEPES-KOH (pH 7.6), 150 mM potassium glutamate, 1 mM DTT, 1 mM EDTA, and 40% glycerol. Diluted enzyme (0.9 unit) was added to each reaction.
The reactions were incubated at 37° C. for 45 min. The reactions were then cooled to 0° C. followed by addition of 3 μL of 40% glycerol, 100 mM Tris-HCl (pH 7.5), 50 mM EDTA, 0.5% SDS and 0.1% bromophenol blue. Samples were separated on 1.0% agarose gels. Gels were stained with Ethidium bromide and photographed with a Stratagene Eagle Eye II.

[2] = tested on: E. coli KL-16 (GSC strain 4245); assay: In vitro antibacterial activity (MIC assay), broth microdilution; format: cell-based; details: Escherichia coli
How it was run: (§1)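 Broth microdilution per NCCLS M7-A5: 11-point 2-fold compound dilutions from DMSO stocks, inoculum about 5×10^5 CFU/mL, incubation 35° C for 16–24 h. MIC scored visually against no-compound growth controls, in μg/mL.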

[3] = tested on: S. pneumoniae ATCC49619; assay: as above; format: cell-based; details: Streptococcus pneumoniae, ATCC49619; read-out: S. pneumoniae ATCC49619 MIC
How it was run: as §1

[4] = tested on: S. aureus ATCC13709; assay: as above; format: cell-based; details: Staphylococcus aureus, ATCC13709; read-out: S. aureus ATCC13709 MIC
How it was run: as §1

[5] = biological target: T2, E. coli DNA gyrase (Escherichia coli, UniProt P0AES4+P0AES6); assay: DNA gyrase inhibition assay (supercoiling); format: biochemical; details: E. coli DNA gyrase supercoiling, visual inspection of gels; read-out: DNA Gyrase IC50 (converted)
T2 construct: purchased John Innes Enterprises Ltd. (John Innes Centre, UK)
How it was run: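 Relaxed pBR322 (250 ng) was supercoiled by 0.2 unit gyrase in Tris-HCl pH 7.5, KCl, MgCl2, DTT, spermidine, 1 mM ATP, glycerol, albumin, 0.5% DMSO final, 30 min at 37° C. Products were resolved on 1.0% agarose gels with ethidium bromide staining.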

T1 sequence (P0AFI2 whole entry): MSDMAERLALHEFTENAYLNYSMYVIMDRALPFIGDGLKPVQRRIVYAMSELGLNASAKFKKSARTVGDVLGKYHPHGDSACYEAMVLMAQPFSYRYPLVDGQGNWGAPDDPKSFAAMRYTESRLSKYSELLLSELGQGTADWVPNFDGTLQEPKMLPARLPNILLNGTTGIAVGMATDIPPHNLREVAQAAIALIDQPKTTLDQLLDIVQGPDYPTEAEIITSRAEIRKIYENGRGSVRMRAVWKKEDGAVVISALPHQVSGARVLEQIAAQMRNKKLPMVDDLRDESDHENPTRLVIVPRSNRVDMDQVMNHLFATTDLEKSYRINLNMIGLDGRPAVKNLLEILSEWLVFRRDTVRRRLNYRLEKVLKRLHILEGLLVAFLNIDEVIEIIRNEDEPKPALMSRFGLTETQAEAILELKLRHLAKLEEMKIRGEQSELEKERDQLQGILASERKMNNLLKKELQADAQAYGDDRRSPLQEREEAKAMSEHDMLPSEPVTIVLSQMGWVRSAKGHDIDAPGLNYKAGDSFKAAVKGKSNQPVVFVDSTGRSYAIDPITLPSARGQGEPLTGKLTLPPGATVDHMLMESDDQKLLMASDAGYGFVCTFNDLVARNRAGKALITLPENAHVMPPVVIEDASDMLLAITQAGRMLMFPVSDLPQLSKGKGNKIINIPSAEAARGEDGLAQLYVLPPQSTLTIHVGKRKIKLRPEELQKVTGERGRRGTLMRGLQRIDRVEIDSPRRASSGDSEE
T1 sequence (P20083 whole entry): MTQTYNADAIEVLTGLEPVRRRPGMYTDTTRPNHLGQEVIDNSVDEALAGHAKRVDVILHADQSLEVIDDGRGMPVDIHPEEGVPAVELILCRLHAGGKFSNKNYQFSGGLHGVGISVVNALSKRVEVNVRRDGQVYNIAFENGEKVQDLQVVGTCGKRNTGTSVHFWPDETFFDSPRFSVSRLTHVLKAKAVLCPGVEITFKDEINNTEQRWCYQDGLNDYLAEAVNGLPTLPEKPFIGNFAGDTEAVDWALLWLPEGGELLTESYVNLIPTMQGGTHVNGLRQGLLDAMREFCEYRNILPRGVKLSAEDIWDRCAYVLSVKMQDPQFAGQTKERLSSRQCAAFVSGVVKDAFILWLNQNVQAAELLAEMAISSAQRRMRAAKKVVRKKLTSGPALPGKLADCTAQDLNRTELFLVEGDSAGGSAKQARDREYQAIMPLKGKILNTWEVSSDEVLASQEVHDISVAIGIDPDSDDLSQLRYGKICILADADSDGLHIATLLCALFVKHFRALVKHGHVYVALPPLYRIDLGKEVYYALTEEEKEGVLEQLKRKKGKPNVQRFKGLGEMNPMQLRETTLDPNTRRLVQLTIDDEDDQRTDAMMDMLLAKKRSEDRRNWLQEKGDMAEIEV
T2 sequence (P0AES4 whole entry, one chain of several): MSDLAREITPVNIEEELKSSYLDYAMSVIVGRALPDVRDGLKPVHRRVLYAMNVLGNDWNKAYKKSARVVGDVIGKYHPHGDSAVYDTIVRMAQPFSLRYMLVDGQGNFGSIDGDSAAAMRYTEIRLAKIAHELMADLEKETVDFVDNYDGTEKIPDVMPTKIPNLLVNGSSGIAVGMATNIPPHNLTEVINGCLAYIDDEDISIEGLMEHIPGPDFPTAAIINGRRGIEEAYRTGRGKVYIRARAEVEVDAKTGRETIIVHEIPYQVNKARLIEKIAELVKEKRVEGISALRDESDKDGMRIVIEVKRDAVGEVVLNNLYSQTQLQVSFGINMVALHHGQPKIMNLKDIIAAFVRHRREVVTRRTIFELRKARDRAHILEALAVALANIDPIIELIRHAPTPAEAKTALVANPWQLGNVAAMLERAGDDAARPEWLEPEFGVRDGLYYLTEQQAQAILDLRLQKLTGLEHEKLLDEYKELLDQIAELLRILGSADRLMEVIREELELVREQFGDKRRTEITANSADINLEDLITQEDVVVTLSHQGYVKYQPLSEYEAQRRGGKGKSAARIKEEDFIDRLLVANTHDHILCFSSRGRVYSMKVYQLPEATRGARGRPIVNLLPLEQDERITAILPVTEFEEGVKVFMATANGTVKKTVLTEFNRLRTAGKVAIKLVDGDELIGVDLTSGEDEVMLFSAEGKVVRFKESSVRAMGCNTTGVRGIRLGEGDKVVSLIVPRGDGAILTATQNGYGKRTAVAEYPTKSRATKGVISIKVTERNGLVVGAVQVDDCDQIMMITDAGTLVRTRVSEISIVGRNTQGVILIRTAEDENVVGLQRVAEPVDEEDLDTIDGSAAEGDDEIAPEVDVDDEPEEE

Row | Structure (SMILES) | IC50 [1] | MIC [2] | MIC [3] | MIC [4] | IC50 [5]
1 | COc1ccc2nccc(-n3cc4c(n3)CCC(NCc3ccc5c(c3)OCO5)C4)c2n1 (centres unmarked) [Example 37, Benzo[1,3]dioxol-5-ylmethyl-[2-(6-methoxy-[1,5]naphthyridin-4-yl)-4,5,6,7-tetrahydro-2H-indazol-5-yl]-amine] | 582 nM | 32 µg/mL (≈ 74.5 µM) | 2 µg/mL (≈ 4.66 µM) | 0.5 µg/mL (≈ 1.16 µM) | 582 nM
2 | COc1ccc2nccc(-n3cc4c(n3)CCC(NCc3ccc5c(c3)OC(F)(F)O5)C4)c2n1 (centres unmarked) [Example 38, (2,2-Difluoro-benzo[1,3]dioxol-5-ylmethyl)-[2-(6-methoxy-[1,5]naphthyridin-4-yl)-4,5,6,7-tetrahydro-2H-indazol-5-yl]-amine] | 537 nM | > 128 µg/mL | 4 µg/mL (≈ 8.59 µM) | 0.25 µg/mL (≈ 0.537 µM) | 4300 nM
3 | COc1ccc2nccc(-n3cc4c(n3)CCC(NCc3cc5c(cc3F)SCC(=O)N5)C4)c2n1 (centres unmarked) [Example 40, 7-Fluoro-6-{[2-(6-methoxy-[1,5]naphthyridin-4-yl)-4,5,6,7-tetrahydro-2H-indazol-5-ylamino]-methyl}-4H-benzo[1,4]thiazin-3-one] | 122 nM | 4 µg/mL (≈ 8.15 µM) | 4 µg/mL (≈ 8.15 µM) | 0.25 µg/mL (≈ 0.51 µM) | 4080 nM
4 | COc1ccc2nccc(-n3cc4c(n3)CCC(NCc3ccc5c(c3)OCCO5)C4)c2n1 (centres unmarked) [Example 42, (2,3-Dihydro-benzo[1,4]dioxin-6-ylmethyl)-[2-(6-methoxy-[1,5]naphthyridin-4-yl)-4,5,6,7-tetrahydro-2H-indazol-5-yl]-amine] | 564 nM | 32 µg/mL (≈ 72.2 µM) | 0.5 µg/mL (≈ 1.13 µM) | 0.03 µg/mL (≈ 0.0676 µM) | 2250 nM
5 | COc1ccc2nccc(-n3cc4c(n3)CCC(NCc3ccc5c(n3)NC(=O)CO5)C4)c2n1 (centres unmarked) [Example 44, 6-{[2-(6-Methoxy-[1,5]naphthyridin-4-yl)-4,5,6,7-tetrahydro-2H-indazol-5-ylamino]-methyl}-4H-pyrido[3,2-b][1,4]oxazin-3-one] | 35 nM | 2 µg/mL (≈ 4.37 µM) | 2 µg/mL (≈ 4.37 µM) | 0.5 µg/mL (≈ 1.09 µM) | < 273 nM
6 | COc1ccc2nccc(-n3cc4c(n3)CCC(NCc3cc5c(cc3F)SCC(=O)N5)C4)c2c1 (centres unmarked) [Example 53, 7-Fluoro-6-{[2-(6-methoxy-quinolin-4-yl)-4,5,6,7-tetrahydro-2H-indazol-5-ylamino]-methyl}-4H-benzo[1,4]thiazin-3-one] | 32.7 nM | 4 µg/mL (≈ 8.17 µM) | 2 µg/mL (≈ 4.09 µM) | 0.25 µg/mL (≈ 0.511 µM) | 1020 nM
7 | COc1ccc2nccc(-n3cc4c(n3)CCC(NCc3ccc5c(n3)NC(=O)CO5)C4)c2c1 (centres unmarked) [Example 54, 6-{[2-(6-Methoxy-quinolin-4-yl)-4,5,6,7-tetrahydro-2H-indazol-5-ylamino]-methyl}-4H-pyrido[3,2-b][1,4]oxazin-3-one] | 35 nM | 2 µg/mL (≈ 4.38 µM) | 2 µg/mL (≈ 4.38 µM) | 1 µg/mL (≈ 2.19 µM) | 131 nM
8 | COc1ccc2nccc(-n3cc4c(n3)CCC(NCC(=O)Nc3cc(F)cc(F)c3)C4)c2n1 (centres unmarked) [Example 58, N-(3,5-Difluoro-phenyl)-2-[2-(6-methoxy-[1,5]naphthyridin-4-yl)-4,5,6,7-tetrahydro-2H-indazol-5-ylamino]-acetamide] | 34.4 nM | 16 µg/mL (≈ 34.4 µM) | 4 µg/mL (≈ 8.61 µM) | 0.25 µg/mL (≈ 0.538 µM) | 2150 nM
9 | COc1ccc2nccc(-n3cc4c(n3)CCN(CC(=O)c3ccc5c(c3)NC(=O)CO5)C4)c2c1 [Example 64, 6-{2-[2-(6-Methoxy-quinolin-4-yl)-2,4,6,7-tetrahydro-pyrazolo[4,3-c]pyridin-5-yl]-acetyl}-4H-benzo[1,4]oxazin-3-one] | 532 nM | 64 µg/mL (≈ 136 µM) | 128 µg/mL (≈ 273 µM) | 4 µg/mL (≈ 8.52 µM) | > 8520 nM
10 | COc1ccc2nccc(-n3cc4c(n3)CCC(NC(=O)c3cnc5ccccc5n3)C4)c2n1 (centres unmarked) [Example 70, Quinoxaline-2-carboxylic acid [2-(6-methoxy-[1,5]naphthyridin-4-yl)-4,5,6,7-tetrahydro-2H-indazol-5-yl]-amide] | > 2210 nM | > 128 µg/mL | 32 µg/mL (≈ 70.9 µM) | 2 µg/mL (≈ 4.43 µM) | > 70900 nM
